Counter-ions that a name gives are not always drawn.

One data set addresses T1, squalene synthetase (Homo sapiens, UniProt P37268).
T1 construct: This suspension was used as the enzyme solution; endogenous in cells; host or cells: HepG2 human hepatic carcinoma cells; membrane fraction (105000×g sediment) of the sonicate
T1 sequence (P37268 1-417): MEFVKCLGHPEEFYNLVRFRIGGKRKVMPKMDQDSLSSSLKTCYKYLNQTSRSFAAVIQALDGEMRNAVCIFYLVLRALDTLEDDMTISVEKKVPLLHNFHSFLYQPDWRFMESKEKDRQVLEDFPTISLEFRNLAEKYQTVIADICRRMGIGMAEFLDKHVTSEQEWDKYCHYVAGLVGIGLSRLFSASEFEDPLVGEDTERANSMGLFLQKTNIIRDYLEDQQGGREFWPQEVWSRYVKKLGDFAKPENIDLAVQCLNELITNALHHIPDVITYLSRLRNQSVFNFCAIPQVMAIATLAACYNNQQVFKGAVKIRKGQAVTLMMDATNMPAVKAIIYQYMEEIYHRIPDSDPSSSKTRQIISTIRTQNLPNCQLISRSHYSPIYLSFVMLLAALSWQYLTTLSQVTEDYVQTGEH
In words: Squalene synthetase inhibitory activity (human-derived enzyme prepared from HepG2 cells). The class given is biochemical. The note with it: [1-3H] farnesyl pyrophosphate, 37° C., 45 minutes, read-out: Inhibitory Activity (IC50, 10^−9 M). As to the method:
The squalene synthetase inhibitory activity was assayed as follows with the enzyme solutions prepared in accordance with the method described below.
More specifically, an enzyme solution (protein content 0.8 μg) prepared in accordance with the method described below was added to a solution (total volume 50 μl)) containing 5 μM [1-^3H] farnesyl pyrophosphate (specific activity 25 μCi/mole), 1 mM NADPH (nicotinamide adenine dinucleotide phosphate of reduced type), 5 mM MgCl2, 6 mM glutathione, a 100 mM buffer solution of potassium phosphate (pH 7.4) and a test drug (used as an aqueous solution or a DMSO solution), then the reaction was allowed to proceed at 37° C. for 45 minutes. To the reaction mixture was added 150 μl of a mixture of chloroform and methanol (1:2) to suspend the reaction, followed by adding 50 Al of chloroform and 50 μl of a 3N solution of sodium hydroxide. 50 μl of the chloroform layer (lower layer) containing the reaction mixture having squalene as the principal component and 3 ml of toluene-based liquid scintillator were mixed, and its radioactivity was determined by means of a liquid scintillation counter.
The squalene synthetase inhibitory activity was expressed in terms of the concentration inhibiting by 50% the radioactivity taken into the chloroform layer (IC50, molar concentration (M)), as shown in Table 7. Preparation of human-derived enzyme
Human hepatic carcinoma cells HepG2 (about 1×10^9 cells) obtained by incubation on a Dulbecco-modified Eagle's medium (37° C. in the presence of 5% CO2) containing 10% fetal bovine serum were suspended in 10 ml of an ice-cooled buffer solution (100 mM potassium phosphate buffer (pH 7.4), 30 mM nicotinamide and 2.5 mM MgCl2]. The cells were crashed by means of ultrasonication (for 30 seconds, twice). The sonicate thus obtained was subjected to centrifugation for 20 minutes (4° C.) with 10000×g. The supernatant layer was subjected to further centrifugation for 90 minutes (4° C.) with 105000×g. The sediment was then suspended in an ice-cooled 100 mM potassium phosphate buffer (pH 7.4), which was again subjected to centrifugation for 90 minutes (4° C.) with 105000×g. This fraction was suspended in an ice-cooled 100 mM potassium phosphate buffer solution (pH 7.4) (about 4 mg/ml protein concentration). This suspension was used as the enzyme solution.

On to `COc1cccc([C@H]2O[C@H](CC(=O)NS(=O)(=O)c3ccccc3C)C(=O)N(CC(C)(C)C)c3ccc(Cl)cc32)c1OC` [Compound 17-1], for which, on squalene synthetase, the IC50 turned out to be 13 nM.

The molecule `COc1cccc([C@H]2O[C@H](CC(=O)NCC(O)CC(=O)O)C(=O)N(CC(C)(C)C)c3ccc(Cl)cc32)c1OC` (stereo partly shown) [Compound 4-24] had a melting point of 122 to 124 °C. Also, the IC50 at squalene synthetase was 14 nM. Molecule `COc1cccc([C@H]2O[C@H](CC(=O)N[C@@H](CC(=O)O)C(=O)O)C(=O)N(CC(C)(C)C)c3ccc(Cl)cc32)c1OC` [Compound 4-10] registered a melting point of 145 to 150 °C. Moreover, the half-maximal inhibitory concentration (IC50) at squalene synthetase came out at 11 nM.

The molecule `COc1cccc([C@H]2O[C@H](CC(=O)N3CCC(O)(CC(=O)O)CC3)C(=O)N(CC(C)(C)C)c3ccc(Cl)cc32)c1OC` [Compound 4-20] registered a melting point of 163 to 166 °C. In addition, the concentration for half-maximal inhibition (IC50) on squalene synthetase stood at 17 nM. Molecule `COc1cccc([C@H]2O[C@H](CC(=O)N[C@@H](CCC(=O)O)C(=O)O)C(=O)N(CC(C)(C)C)c3ccc(Cl)cc32)c1OC` [Compound 4-9] came in with a melting point of 152 to 155 °C. On squalene synthetase, the IC50 turned out to be 11 nM.

`CCC(C)[C@H](NC(=O)C[C@H]1O[C@H](c2cccc(OC)c2OC)c2cc(Cl)ccc2N(CC(C)(C)C)C1=O)C(=O)O` (stereo partly shown) [Compound 4-8] showed a melting point of 137 to 139 °C. For the same molecule, the half-inhibitory concentration (IC50) on squalene synthetase came to 11 nM. Turning to `COc1cccc([C@H]2O[C@H](CC(=O)NS(C)(=O)=O)C(=O)N(CC(C)(CO)CO)c3ccc(Cl)cc32)c1OC` [Compound 20, (3R,5S)-N-methylsulfonyl-7-chloro-5-(2,3-dimethoxyphenyl)-1-(3-hydroxy-2-hydroxymethyl-2-methylpropyl)-2-oxo-1,2,3,5-tetrahydro-4,1-benzoxazepine-3-acetamide], the half-maximal inhibitory concentration (IC50) at squalene synthetase came to 48 nM.

`COc1cccc([C@H]2O[C@H](CC(=O)NCP(=O)(O)O)C(=O)N(CC(C)(C)CO)c3ccc(Cl)cc32)c1OC` [Compound 27, (3R,5S)-N-phosphonomethyl-7-chloro-5-(2,3-dimethoxyphenyl)-1-(3-hydroxy-2,2-dimethylpropyl)-2-oxo-1,2,3,5-tetrahydro-4,1-benzoxazepine-3-acetamide]: at squalene synthetase, the concentration for half-maximal inhibition (IC50) turned out to be 20 nM.

Molecule `COc1cccc([C@H]2O[C@H](CC(=O)NS(C)(=O)=O)C(=O)N(CC(C)(C)COC(C)=O)c3ccc(Cl)cc32)c1OC` [Compound 41, (3R,5S)-N-Methylsulfonyl-1-(3-acetoxy-2,2-dimethylpropyl)-7-chloro-5-(2,3-dimethoxyphenyl)-2-oxo-1,2,3,5-tetrahydro-4,1-benzoxazepine-3-acetamide] returned a melting point of 108 to 112 °C. `COc1cccc([C@H]2O[C@H](CC(=O)N3CCC(CCc4nnn[nH]4)CC3)C(=O)N(CC(C)(C)C)c3ccc(Cl)cc32)c1OC` [Compound 25, 5-[2-[N-[(3R,5S)-7-chloro-5-(2,3-dimethoxyphenyl)-1-neopentyl-2-oxo-1,2,3,5-tetrahydro-4,1-benzoxazepine-3-acetyl]piperidin-4-yl]ethyl]1H(or 3H)-tetrazole] had a melting point of 155 to 158 °C. The 50% inhibitory concentration (IC50) on squalene synthetase stood at 29 nM. Take `COc1cccc([C@H]2O[C@H](CC(=O)N[C@H](C(=O)O)C(C)C)C(=O)N(CC(C)(C)C)c3ccc(Cl)cc32)c1OC` [Compound 4-29]: the melting point was 129 to 132 °C. Besides, on squalene synthetase, the IC50 came to 15 nM.

`COc1cccc([C@H]2O[C@H](CC(=O)N(C)CC(=O)O)C(=O)N(CC(C)(C)C)c3ccc(Cl)cc32)c1OC` [Compound 4-12] showed a melting point of 134 to 136 °C. For the same molecule, the half-inhibitory concentration (IC50) on squalene synthetase is 11 nM. On the same counts, the results for `COc1cccc([C@H]2O[C@H](CC(=O)N[C@@H](CC(C)C)C(=O)O)C(=O)N(CC(C)(C)C)c3ccc(Cl)cc32)c1OC` [Compound 4-30] are 87 to 92 °C and 12 nM. On the same counts, the results for `COc1cccc([C@H]2O[C@H](CC(=O)NS(=O)(=O)C(C)C)C(=O)N(CC(C)(C)C)c3ccc(Cl)cc32)c1OC` [Compound 17-3] are 149 to 150 °C and 11 nM. Turning to `COc1cccc([C@H]2O[C@H](CC(=O)N3CCC(CC(=O)NS(C)(=O)=O)CC3)C(=O)N(CC(C)(C)CO)c3ccc(Cl)cc32)c1OC` [Compound 21, N-methylsulfonyl-[N-[(3R,5S)-7-chloro-5-(2,3-dimethoxyphenyl)-1-(3-hydroxy-2,2-dimethylpropyl)-2-oxo-1,2,3,5-tetrahydro-4,1-benzoxazepine-3-acetyl]piperidine]-4-acetamide], the melting point is 175 to 180 °C. Besides, the IC50 on squalene synthetase worked out at 26 nM. `COc1cccc([C@H]2O[C@H](CC(=O)N[C@@H](Cc3ccc(O)cc3)C(=O)O)C(=O)N(CC(C)(C)C)c3ccc(Cl)cc32)c1OC` [Compound 4-26] had a melting point of 160 to 162 °C. In addition, the IC50 on squalene synthetase stood at 15 nM. In the case of `COc1cccc([C@H]2O[C@H](CC(=O)NCCC(=O)O)C(=O)N(CC(C)(C)C)c3ccc(Cl)cc32)c1OC` [Compound 4-21], the melting point lay in the range of 165 to 167 °C. Also, on squalene synthetase, the IC50 came out at 11 nM.

Consider `COc1cccc([C@H]2O[C@H](CC(=O)NS(=O)(=O)c3ccccc3)C(=O)N(CC(C)(C)C)c3ccc(Cl)cc32)c1OC` [Compound 17-2], for which the melting point was 158 to 161 °C. Besides, on squalene synthetase, the IC50 turned out to be 9.3 nM.

For the molecule `COc1cccc([C@H]2O[C@H](CC(=O)N3CCC(C(=O)O)CC3)C(=O)N(CC(C)(C)CO)c3ccc(Cl)cc32)c1OC` [Compound 13-2], the half-maximal inhibitory concentration (IC50) on squalene synthetase is 18 nM. `COc1cccc([C@H]2O[C@H](CC(=O)NCP(=O)(O)O)C(=O)N(CC(C)(C)C)c3ccc(Cl)cc32)c1OC` [Compound 22, (3R,5S)-N-phosphonomethyl-7-chloro-5-(2,3-dimethoxyphenyl)-1-neopentyl-2-oxo-1,2,3,5-tetrahydro-4,1-benzoxazepine-3-acetamide] registered a melting point of 152 to 155 °C. Also, the IC50 on squalene synthetase amounted to 8.5 nM.

As to `CCS(=O)(=O)NC(=O)C[C@H]1O[C@H](c2cccc(OC)c2OC)c2cc(Cl)ccc2N(CC(C)(C)C)C1=O` [Compound 17-4], the melting point lay in the range of 135 to 140 °C. On squalene synthetase, the IC50 is 9.3 nM.

In the case of `COc1cccc([C@H]2O[C@H](Cc3nnn[nH]3)C(=O)N(CC(C)(C)C)c3ccc(Cl)cc32)c1OC` [Compound 7, (3R,5S)-7-Chloro-5-(2,3-dimethoxyphenyl)-1-neopentyl-1,2,3,5-tetrahydro-3-[1H(or 3H)-tetrazol-5-yl]methyl-4,1-benzoxazepin-2-one], the melting point was 148 to 150 °C. Moreover, the IC50 on squalene synthetase was found to be 11 nM. Consider `COc1cccc([C@H]2O[C@H](Cc3nnn[nH]3)C(=O)N(CC(C)(C)CO)c3ccc(Cl)cc32)c1OC` [Compound 11, (3R, 5S)-7-Chloro-5-(2,3-dimethoxyphenyl)-1-(3-hydroxy-2,2-dimethylpropyl)-1,2,3,5-tetrahydro-3-[1H (or 3H)-tetrazol-5-yl]methyl-4,1-benzoxazepin-2-one], for which the melting point was 158 to 160 °C.

Turning to `COc1cccc([C@H]2O[C@H](CC(=O)N3CCC(=CC(=O)O)CC3)C(=O)N(CC(C)(C)C)c3ccc(Cl)cc32)c1OC` [Compound 4-18], the melting point fell in the range of 228 to 230 °C. Besides, on squalene synthetase, the IC50 was found to be 18 nM.

`COc1cccc([C@H]2O[C@H](CC(=O)N3CCN(CC(=O)O)C(=O)C3)C(=O)N(CC(C)(C)C)c3ccc(Cl)cc32)c1OC` [Compound 4-31] came in with a melting point of 162 to 164 °C. The IC50 at squalene synthetase worked out at 20 nM. Regarding `CCOP(=O)(CNC(=O)C[C@H]1O[C@H](c2cccc(OC)c2OC)c2cc(Cl)ccc2N(CC(C)(C)CO)C1=O)OCC`, the melting point lay in the range of 138 to 140 °C. As to `COc1cccc([C@H]2O[C@H](Cc3nnn[nH]3)C(=O)N(CC(C)(C)C)c3ccc(Cl)cc32)c1OC` [Compound 9, (3R, 5S)-7-Chloro-5-(2,3-dimethoxyphenyl)-1-neopentyl-1,2,3,5-tetrahydro-3-(tetrazol-5-yl)methyl-4,1-benzoxazepin-2-one sodium salt], the 50% inhibitory concentration (IC50) at squalene synthetase is 9.5 nM.

The record behind these values is US6613761B1, “Benzoxazepine compounds, their production and use” (Takeda Chemical Industries, Ltd., priority 1995, dated 2003).
